Laboratory results published in US11065253B2, “Arylquinazolines” (Merck Patent GmbH, priority 2013, dated 2021).
Like-named read-outs stand apart in the source and are kept apart here. Values belong to the compound of their own block, whether it stands above or below them.

Test system: phospho-serine 2056 DNA-PK in HCT116 cells
Test: DNA-PK phosphorylation at serine 2056 (cellular), ELISA in bleomycin-treated HCT116 cells
Format: cell-based
Settings: read-out: IC50 pDNA-PK
Method: HCT116 cells were cultivated at 37° C. and 10% CO2 in MEM alpha medium with 10% of foetal calf serum and 2 mM glutamine. The cells were detached from the base of the culture vessels with the aid of trypsin/EDTA, centrifuged off in centrifuge tubes, taken up in fresh medium, and the cell density was determined. 100,000 cells were sown in 1 ml of culture medium per cavity of a 24-well cell culture plate and cultivated overnight. Next day, 10 μM bleomycin (DNA intercalator and inductor of DNA double-strand breaks) and test substances in fresh culture medium were added to the cells, and these were cultivated for a further six hours. […] The 96-well ELISA plates were subsequently treated with a detection antibody (Abcam ab79444: total DNA-PK) and a streptavidin-HRP conjugate. The development of the enzymatic reaction was carried out with the aid of a chemiluminescent reagent, the chemiluminescence was measured with the aid of a Mithras LB940. The signals with the phospho-DNA-PK-specific antibody were standardised to the signal with the antibody against the total protein DNA-PKc. […] The DMSO control was used as blank.

[1] = Homo sapiens, HCT-116, 6 h, cellular, HCT116 cells, 10 μM bleomycin, six hours
[2] = Homo sapiens, HCT-116, phospho-serine 2056 DNA-PK, bleomycin-treated HCT116 cells, class symbols A-D
[3] = cellular DNA-PK phosphorylation at serine 2056, HCT116 cells
[4] = cellular, HCT116 cells, 10 μM bleomycin, six hours
[5] = Homo sapiens, HCT-116, cellular DNA-PK phosphorylation at serine 2056, HCT116 cells
[6] = Homo sapiens, HCT-116, phospho-serine 2056 DNA-PK, bleomycin-treated HCT116 cells

SMILES: COc1ccc(C(O)c2cc(-c3ncnc4cc(N5CCOCC5)ccc34)c(F)cc2F)cn1 (centres unmarked) [Example 221, [2,4-Difluoro-5-(7-morpholin-4-yl-quinazolin-4-yl)-phenyl]-(6-methoxy-pyridin-3-yl)methanol]
IC50 [2]: 0.5 to 5 µM

SMILES: Cn1cnc2ncnc(C(O)c3cc(-c4ncnc5cc(N6CCOCC6)ccc45)c(F)cc3Cl)c21 (centres unmarked) [Example 423, [2-Chloro-4-fluoro-5-(7-morpholin-4-yl-quinazolin-4-yl)-phenyl]-(7-methyl-7H-purin-6-yl)-methanol]
IC50 [3]: 5 to 10 µM

SMILES: CCn1nc(C(O)c2cc(-c3ncnc4cc(N5CCOCC5)ccc34)c(F)cc2Cl)ccc1=O (centres unmarked) [Example 93, 6-{[2-Chloro-4-fluoro-5-(7-morpholin-4-yl-quinazolin-4-yl)phenyl]-hydroxymethyl}-2-ethyl-2H-pyridazin-3-one]
IC50 [1]: < 0.5 µM

SMILES: Cn1c(C(O)c2cc(-c3ncnc4cc(N5CCOCC5)ccc34)ccc2Cl)cccc1=O (centres unmarked) [Example 364, 6-{[2-Chloro-5-(7-morpholin-4-yl-quinazolin-4-yl)-phenyl]hydroxy-methyl}-1-methyl-1H-pyridin-2-one (Ena 1)]
IC50 (phospho-serine 2056 DNA-PK, bleomycin-treated HCT116 cells): < 0.5 µM

SMILES: OC(c1cc(F)c(F)c(-c2ncnc3cc(N4CCOCC4)ccc23)c1)c1nccs1 (centres unmarked) [Example 171, [3,4-Difluoro-5-(7-morpholin-4-yl-quinazolin-4-yl)-phenyl]thiazol-2-yl-methanol]
IC50 [2]: 0.5 to 5 µM

SMILES: COc1ccc(C(O)c2cc(-c3ncnc4cc(N5CCOCC5)ccc34)c(F)cc2F)cc1 (centres unmarked) [Example 120, [2,4-Difluoro-5-(7-morpholin-4-yl-quinazolin-4-yl)-phenyl]-(4-methoxyphenyl)-methanol]
IC50 [2]: 0.5 to 5 µM

SMILES: OC(c1ccc(F)c(-c2ncnc3cc(N4CCOCC4)sc23)c1)c1nccnc1Cl (single isomer, unassigned) [Example 24, (3-Chloro-pyrazin-2-yl)-[4-fluoro-3-(6-morpholin-4-yl-thieno-[3,2-d}pyrimidin-4-yl)-phenyl]methanol]
IC50 [4]: < 0.5 µM

SMILES: OC(c1cccnn1)c1cc(-c2ncnc3cc(N4CCOCC4)ccc23)c(F)cc1F (centres unmarked) [Example 48, [2,4-Difluoro-5-(7-morpholin-4-yl-quinazolin-4-yl)phenyl]-pyridazin-3-ylmethanol]
IC50 [1]: 0.5 to 5 µM

SMILES: OC(c1cc(-c2ncnc3cc(N4CCOCC4)ccc23)c(F)cc1F)c1nccn2cccc12 (centres unmarked) [Example 358, [2,4-Difluoro-5-(7-morpholin-4-yl-quinazolin-4-yl)-phenyl]pyrrolo[1,2-a]-pyrazin-1-ylmethanol]
IC50 [6]: < 0.5 µM

SMILES: OC(c1ccc2nccn2n1)c1cc(-c2ncnc3cc(N4CCOCC4)ccc23)c(F)cc1Cl (centres unmarked) [Example 56, [2-Chloro-4-fluoro-5-(7-morpholin-4-yl-quinazolin-4-yl)phenyl]-imidazo[1,2-b]pyridazin-6-ylmethanol]
IC50 [1]: 0.5 to 5 µM

SMILES: COc1ccc(C(O)c2cc(-c3ncnc4cc(N5CCOCC5)ccc34)ccc2Cl)nn1 (centres unmarked) [Example 460, [2-Chloro-5-(7-morpholin-4-yl-quinazolin-4-yl)-phenyl]-(6-methoxy-pyridazin-3-yl)-methanol]
IC50 [3]: < 0.5 µM

SMILES: COc1nccnc1[C@@H](O)c1cc(-c2ncnc3cc(N4CCOCC4)ccc23)ccc1Cl [Example 411, (S)-[2-Chloro-5-(7-morpholin-4-yl-quinazolin-4-yl)-phenyl]-(3-methoxy-pyrazin-2-yl)-methanol (Ena 1)]
IC50 [3]: 0.5 to 5 µM

SMILES: Cn1c(C(O)c2cc(-c3ncnc4cc(N5CCOCC5)ccc34)c(F)cc2Cl)cccc1=O (centres unmarked) [Example 383, 6-{[2-Chloro-4-fluoro-5-(7-morpholin-4-yl-quinazolin-4-yl)-phenyl]hydroxy-methyl}-1-methyl-1H-pyridin-2-one (Ena 1)]
IC50 [3]: < 0.5 µM

SMILES: CNCc1csc(C(O)c2cc(-c3ncnc4cc(N5CCOCC5)ccc34)c(F)cc2Cl)n1 (centres unmarked) [Example 143, [2-Chloro-4-fluoro-5-(7-morpholin-4-yl-quinazolin-4-yl)-phenyl]-(4-methylamino-methyl-thiazol-2-yl)-methanol]
IC50 [2]: 5 to 10 µM

Other lines, results leading:

IC50 [1]: 5 to 10 µM
SMILES: CCOc1cnnc(C(O)c2ccc(F)c(-c3ncnc4cc(N5CCOCC5)ccc34)c2)c1 (centres unmarked) [Example 79, (5-Ethoxypyridazin-3-yl)-[4-fluoro-3-(7-morpholin-4-yl-quinazolin-4-yl)phenyl]-methanol]

IC50 [1]: < 0.5 µM
SMILES: OC(c1ccc(F)c(-c2ncnc3cc(N4CCOCC4)ccc23)c1)c1nccnc1Cl (centres unmarked) [Example 54, (3-Chloro-pyrazin-2-yl)-[4-fluoro-3-(7-morpholin-4-yl-quinazolin-4-yl)phenyl]-methanol]

IC50 [4]: < 0.5 µM
SMILES: OC(c1cccnn1)c1cc(-c2ncnc3cc(N4CCOCC4)ccc23)c(F)cc1Cl (centres unmarked) [Example 47, [2-Chloro-4-fluoro-5-(7-morpholin-4-yl-quinazolin-4-yl)phenyl]-pyridazin-3-ylmethanol]

IC50 [1]: < 0.5 µM
SMILES: COc1ncc(Cl)nc1C(O)c1ccc(F)c(-c2ncnc3cc(N4CCOCC4)ccc23)c1 (centres unmarked) [Example 25, (6-Chloro-3-methoxy-pyrazin-2-yl)-[4-fluoro-3-(7-morpholin-4-yl-quinazolin-4-yl)phenyl]-methanol]

IC50 [5]: < 0.5 µM
SMILES: OC(c1ccc(F)c(-c2ncnc3cc(N4CCOCC4)ccc23)c1)c1nccnc1C(F)(F)F (centres unmarked) [Example 476, [4-Fluoro-3-(7-morpholin-4-yl-quinazolin-4-yl)-phenyl]-(3-trifluoro-methylpyrazin-2-yl)-methanol]

IC50 [2]: 5 to 10 µM
SMILES: Cc1nc(C(O)c2ccc(F)c(-c3ncnc4cc(N5CCOCC5)ccc34)c2)sc1CO (centres unmarked) [Example 200, [4-Fluoro-3-(7-morpholin-4-yl-quinazolin-4-yl)-phenyl]-(5-hydroxy-methyl-4-methyl-thiazol-2-yl)-methanol]

IC50 [6]: 0.5 to 5 µM
SMILES: Cc1ncc(C(O)c2ccc(F)c(-c3ncnc4cc(N5CCOCC5)ccc34)c2)nc1C (centres unmarked) [Example 314, (5,6-Dimethyl-pyrazin-2-yl)-[4-fluoro-3-(7-morpholin-4-yl-quinazolin-4-yl)-phenyl]methanol]

IC50 [6]: 5 to 10 µM
SMILES: COc1nccnc1C(C(N)=O)c1cc(-c2ncnc3cc(N4CCOCC4)ccc23)ccc1F (centres unmarked) [Example 316, 2-[2-Fluoro-5-(7-morpholin-4-yl-quinazolin-4-yl)-phenyl]-2-(3-methoxy-pyrazin-2-yl)acetamide]

IC50 [6]: 0.5 to 5 µM
SMILES: NC(=O)C(c1cc(-c2ncnc3cc(N4CCOCC4)ccc23)c(F)cc1Cl)c1ncccc1Cl (centres unmarked) [Example 289, 2-[2-Chloro-4-fluoro-5-(7-morpholin-4-yl-quinazolin-4-yl)-phenyl]-2-(3-chloro-pyridin-2-yl)-acetamide]

IC50 [6]: < 0.5 µM
SMILES: OC(c1ccc(F)c(-c2ncnc3cc(N4CCOCC4)ccc23)c1)c1nncc2sccc12 (centres unmarked) [Example 333, [4-Fluoro-3-(7-morpholin-4-yl-quinazolin-4-yl)-phenyl]thieno[2,3-d}-pyridazin-4-yl-methanol]

IC50 [1]: < 0.5 µM
SMILES: COc1cnc(C(O)c2ccc(F)c(-c3ncnc4cc(N5CCOCC5)ccc34)c2)c(Cl)c1 (centres unmarked) [Example 31, (3-Chloro-5-methoxy-pyridin-2-yl)-[4-fluoro-3-(7-morpholin-4-yl-quinazolin-4-yl)phenyl]-methanol]

IC50 [2]: 5 to 10 µM
SMILES: CN(C)CCOc1ccc(C(O)c2ccc(F)c(-c3ncnc4cc(N5CCOCC5)ccc34)c2)nn1 (centres unmarked) [Example 133, [6-(2-Dimethyl-amino-ethoxy)-pyridazin-3-yl]-[4-fluoro-3-(7-morpholin-4-yl-quinazolin-4-yl)-phenyl]methanol]

IC50 [6]: 5 to 10 µM
SMILES: Cc1nccnc1C(C(N)=O)c1cc(-c2ncnc3cc(N4CCOCC4)ccc23)c(F)cc1F (centres unmarked) [Example 329, 2-[2,4-Difluoro-5-(7-morpholin-4-yl-quinazolin-4-yl)-phenyl]-2-(3-methyl-pyrazin-2-yl)-acetamide]

IC50 [1]: < 0.5 µM
SMILES: COc1cc(C(O)c2ccc(F)c(-c3ncnc4cc(N5CCOCC5)ccc34)c2)c(Cl)nn1 (centres unmarked) [Example 7, (3-Chloro-6-methoxy-pyridazin-4-yl)-[4-fluoro-3-(7-morpholin-4-yl-quinazolin-4-yl)phenyl]-methanol]

IC50 [5]: 0.5 to 5 µM
SMILES: Cn1cnc2ncnc(C(O)c3ccc(F)c(-c4ncnc5cc(N6CCOCC6)ccc45)c3)c21 (centres unmarked) [Example 433, [4-Fluoro-3-(7-morpholin-4-yl-quinazolin-4-yl)-phenyl]-(7-methyl-7H-purin-6-yl)-methanol]

IC50 [1]: 0.5 to 5 µM
SMILES: OC(c1ccc(Cl)nn1)c1cc(-c2ncnc3cc(N4CCOCC4)ccc23)c(F)cc1F (centres unmarked) [Example 49, (6-Chloro-pyridazin-3-yl)-[2,4-difluoro-5-(7-morpholin-4-yl-quinazolin-4-yl)phenyl]-methanol]

IC50 [1]: 10 to 30 µM
SMILES: OC(c1ccc(F)c(-c2ncnc3cc(N4CCOCC4)ccc23)c1)c1cnccn1 (centres unmarked) [Example 33, [4-Fluoro-3-(7-morpholin-4-yl-quinazolin-4-yl)phenyl]-pyrazin-2-ylmethanol]

IC50 [6]: 5 to 10 µM
SMILES: NC(=O)C(c1ccc(F)c(-c2ncnc3cc(N4CCOCC4)ccc23)c1)c1nnc(Cl)c2ccsc12 (centres unmarked) [Example 290, 2-(4-Chlorothieno-[2,3-d}pyridazin-7-yl)-2-[4-fluoro-3-(7-morpholin-4-yl-quinazolin-4-yl)-phenyl]acetamide]
